ChEMBL document CHEMBL4680193, “Isoindoline scaffold-based dual inhibitors of HDAC6 and HSP90 suppressing the growth of lung cancer in vitro and in vivo” (Eur J Med Chem, 2020)
pIC50: −log10 of the molar value. Calls of active or inactive are those of the source. No cut-off for these calls is given here.

Assays:
[1] = target: Heat shock protein HSP 90-alpha (Homo sapiens, UniProt P07900); assay: Inhibition of HSP90a (unknown origin)
[2] = target: Histone deacetylase 3 (Homo sapiens, UniProt O15379)
Sequence of Histone deacetylase 3 (O15379 whole entry): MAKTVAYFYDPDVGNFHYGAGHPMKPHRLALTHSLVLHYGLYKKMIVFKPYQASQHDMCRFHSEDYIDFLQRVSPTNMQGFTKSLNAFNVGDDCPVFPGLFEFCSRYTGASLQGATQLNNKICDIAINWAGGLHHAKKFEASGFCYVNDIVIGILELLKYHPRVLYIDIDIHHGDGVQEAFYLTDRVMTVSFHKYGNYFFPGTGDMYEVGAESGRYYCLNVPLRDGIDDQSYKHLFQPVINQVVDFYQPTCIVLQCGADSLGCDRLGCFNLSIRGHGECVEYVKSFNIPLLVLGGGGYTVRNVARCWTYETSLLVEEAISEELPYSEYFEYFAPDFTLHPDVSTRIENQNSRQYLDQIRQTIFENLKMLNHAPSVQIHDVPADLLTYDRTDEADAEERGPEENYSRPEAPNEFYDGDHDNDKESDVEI

[3] = test system: A549; assay: Growth inhibition of human A549 cells incubated for 48 hrs by SRB assay; assay type: functional
[4] = target: Histone deacetylase 1 (Homo sapiens, UniProt Q13547); assay: Inhibition of recombinant human C-terminal FLAG-His-tagged HDAC1 (1 to 482 residues) expressed in Sf21 cells using RHK-K(Ac)-AMC as substrate incubated for 60 mins by fluorimetry analysis
Sequence of Histone deacetylase 1 (Q13547 whole entry, the tested form may be a part): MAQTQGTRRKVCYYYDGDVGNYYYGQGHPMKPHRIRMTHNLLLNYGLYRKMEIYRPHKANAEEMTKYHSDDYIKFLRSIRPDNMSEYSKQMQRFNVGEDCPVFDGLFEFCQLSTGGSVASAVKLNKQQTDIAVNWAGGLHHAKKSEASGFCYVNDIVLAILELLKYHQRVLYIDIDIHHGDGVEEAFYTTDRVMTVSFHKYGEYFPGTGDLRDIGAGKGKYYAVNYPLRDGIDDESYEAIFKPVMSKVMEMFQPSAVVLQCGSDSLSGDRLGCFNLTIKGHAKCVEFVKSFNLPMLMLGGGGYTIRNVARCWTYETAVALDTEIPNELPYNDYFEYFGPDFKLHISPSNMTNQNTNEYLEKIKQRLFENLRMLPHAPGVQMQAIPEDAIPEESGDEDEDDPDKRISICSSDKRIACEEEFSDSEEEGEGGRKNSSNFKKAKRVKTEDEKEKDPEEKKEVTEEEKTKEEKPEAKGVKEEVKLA

[5] = species: Homo sapiens; assay: Selectivity index, ratio of IC50 for recombinant human C-terminal FLAG-His-tagged HDAC1 (1 to 482 residues) expressed in Sf21 cells to IC50 for recombinant human HDAC6
[6] = target: T1, Protein deacetylase HDAC6 (Homo sapiens, UniProt Q9UBN7); assay: Inhibition of recombinant human HDAC6 using RHK-K(Ac)-AMC as substrate by fluorescence based assay
T1 sequence (Q9UBN7 whole entry): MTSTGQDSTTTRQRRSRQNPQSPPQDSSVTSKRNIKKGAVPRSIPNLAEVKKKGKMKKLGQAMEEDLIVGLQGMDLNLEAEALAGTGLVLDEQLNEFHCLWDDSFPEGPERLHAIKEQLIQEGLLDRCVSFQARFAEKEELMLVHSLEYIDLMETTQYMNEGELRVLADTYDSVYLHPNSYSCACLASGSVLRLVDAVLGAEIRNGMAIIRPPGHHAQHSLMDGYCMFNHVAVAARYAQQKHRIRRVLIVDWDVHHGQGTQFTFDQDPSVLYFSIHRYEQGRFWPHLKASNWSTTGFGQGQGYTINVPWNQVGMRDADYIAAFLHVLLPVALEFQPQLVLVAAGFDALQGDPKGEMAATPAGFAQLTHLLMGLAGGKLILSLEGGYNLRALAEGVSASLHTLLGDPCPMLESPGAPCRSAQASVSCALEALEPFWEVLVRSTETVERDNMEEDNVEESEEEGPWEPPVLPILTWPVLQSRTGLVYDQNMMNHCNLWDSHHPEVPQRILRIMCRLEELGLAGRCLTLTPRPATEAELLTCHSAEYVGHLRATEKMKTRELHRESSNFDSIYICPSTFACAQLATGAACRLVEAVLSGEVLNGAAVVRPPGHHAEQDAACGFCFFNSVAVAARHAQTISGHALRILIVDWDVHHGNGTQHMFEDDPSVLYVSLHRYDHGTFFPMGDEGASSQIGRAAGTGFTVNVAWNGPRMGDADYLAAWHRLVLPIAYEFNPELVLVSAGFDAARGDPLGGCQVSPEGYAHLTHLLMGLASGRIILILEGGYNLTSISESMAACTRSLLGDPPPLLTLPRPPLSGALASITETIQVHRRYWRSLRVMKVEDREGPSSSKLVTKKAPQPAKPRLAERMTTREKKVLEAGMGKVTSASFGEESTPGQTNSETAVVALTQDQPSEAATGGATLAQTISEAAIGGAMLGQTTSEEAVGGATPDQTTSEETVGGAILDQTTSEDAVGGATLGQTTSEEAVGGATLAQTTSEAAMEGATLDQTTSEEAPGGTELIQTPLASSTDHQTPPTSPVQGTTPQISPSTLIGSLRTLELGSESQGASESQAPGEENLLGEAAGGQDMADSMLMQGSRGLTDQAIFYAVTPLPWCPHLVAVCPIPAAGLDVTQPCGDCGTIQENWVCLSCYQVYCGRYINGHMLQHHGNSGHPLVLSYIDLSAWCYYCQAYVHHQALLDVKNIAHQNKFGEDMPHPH

[7] = target: T2, Histone deacetylase 8 (Homo sapiens, UniProt Q9BY41); assay: Inhibition of recombinant human HDAC8 using RHK-K(Ac)-AMC as substrate by fluorescence based assay
T2 sequence (Q9BY41 whole entry): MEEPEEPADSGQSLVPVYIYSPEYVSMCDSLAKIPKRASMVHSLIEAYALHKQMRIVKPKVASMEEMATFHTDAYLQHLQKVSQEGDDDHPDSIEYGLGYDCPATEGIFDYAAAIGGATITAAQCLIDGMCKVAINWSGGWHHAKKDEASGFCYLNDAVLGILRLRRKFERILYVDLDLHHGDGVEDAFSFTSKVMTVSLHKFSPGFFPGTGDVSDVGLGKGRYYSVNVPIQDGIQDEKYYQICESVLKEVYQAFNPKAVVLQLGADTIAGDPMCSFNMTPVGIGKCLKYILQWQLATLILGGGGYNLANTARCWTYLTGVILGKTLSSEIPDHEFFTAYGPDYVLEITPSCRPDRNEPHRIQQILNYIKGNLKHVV

[8] = species: Homo sapiens; assay: Selectivity index, ratio of IC50 for recombinant human HDAC8 to IC50 for recombinant human HDAC6
[9] = species: Homo sapiens; assay: Selectivity index, ratio of IC50 for recombinant human HDAC3 to IC50 for recombinant human HDAC6
[10] = target: Histone deacetylase; assay type: tissue-based, Homo sapiens; conditions: hela
[11] = test system: NCI-H1975; assay: cells; assay type: functional; conditions: Homo sapiens, time 48 hrs
[12] = test system: NCI-H1975; assay: Antitumor activity against human NCI-H1975 cells xenografted in BALB/c mouse assessed as reduction in tumor growth at 20 mg/kg, ip administered for 2 weeks and measured after 2 week relative to control; assay type: functional; conditions: 336 h, read-out: TGI
[13] = target: T3, Heat shock protein HSP90 (Homo sapiens) (UniProt P07900+P08238); assay: Inhibition of HSP90 in human NCI-H1975 cells assessed as decrease in Akt Ser473 phosphorylation at 1 to 3 uM measured after 24 hrs by Western blot analysis; assay type: cell-based; conditions: dose 1-3 µM
[14] = target: T3, Heat shock protein HSP90 (Homo sapiens); assay: Inhibition of HSP90 in human NCI-H1975 cells assessed as decrease in STAT3 Tyr705 phosphorylation at 1 to 3 uM measured after 24 hrs by Western blot analysis; assay type: cell-based; conditions: dose 1-3 µM

Compound	pIC50 [1]	pIC50 [2]	GI50 ([3]; Homo sapiens, A549) [nM]	pIC50 [4]	Ratio IC50 [5]	pIC50 [6]	pIC50 [7]	Ratio IC50 [8]	Ratio IC50 [9]	IC50 [10] [nM]	GI50 [11] [nM]	GI50 [3] [nM]	inhibition in vivo at 20 mg/kg [12] [%]	inhibition [13]	inhibition [14]
CC(C)c1cc(C(=O)N2Cc3ccc(NCc4ccc(C(=O)NO)cc4)cc3C2)c(O)cc1O	7.18	5.01	370	< 5.00	> 300	7.48	6.38	12.6	296	> 1000	130				
CC(C)c1cc(C(=O)N2Cc3ccc(/C=C/C(=O)NO)cc3C2)c(O)cc1O	6.99	5.40	2740	5.50	10.4	6.52	6.17	2.2	13.2	> 1000	32000				
CC(C)c1cc(C(=O)N2Cc3ccc(NC(=O)CCCC(=O)NO)cc3C2)c(O)cc1O	6.87	5.36	> 10000	5.13	108	7.16			64.3	> 1000	> 10000				
O=C(CCCCCCC(=O)Nc1ccccc1)NO [VORINOSTAT]	< 6.00											1020			
CN(C)C/C=C/C(=O)Nc1cc2c(Nc3ccc(F)c(Cl)c3)ncnc2cc1O[C@H]1CCOC1 [AFATINIB]													63.8		
CC(C)c1cc(C(=O)N2Cc3ccc(NC(=O)CCC(=O)NO)cc3C2)c(O)cc1O	6.91		830			< 5.00	5.14			> 1000	39000				
COc1c(C)cnc(Cn2cnc3c(Cl)nc(N)nc32)c1C [BIIB021]			330							> 1000	200				
CC(C)c1cc(C(=O)N2Cc3ccc(NC(=O)CCCCC(=O)NO)cc3C2)c(O)cc1O	6.96	5.55	870	5.16	20.8	6.48	5.13	22.5	8.5	> 1000	1640				
CC(C)c1cc(C(=O)N2Cc3ccc(NC(=O)CCCCCC(=O)NO)cc3C2)c(O)cc1O	7.36	5.66	2220	5.42	404	8.03	5.70	213	234	521.4	680				
CC(C)c1cc(C(=O)N2Cc3ccc(NC(=O)CCCCCCC(=O)NO)cc3C2)c(O)cc1O	7.36	6.41	2920	6.26	250	8.66	5.82	683	175	1683	434000				
CC(C)c1cc(C(=O)N2Cc3ccc(NCc4ccc(CN5CCN(C)CC5)cc4)cc3C2)c(O)cc1O														Active	Active
CC(C)c1cc(C(=O)N2Cc3ccc(NC(=O)CCCCCCCC(=O)NO)cc3C2)c(O)cc1O	6.37	6.31	235000	5.97	507	8.67	< 5.00	> 4720	233	198.9	1070				
